Each molecule was assayed against T1, HSL (Homo sapiens, UniProt Q05469) (assay: TEST 3180.2 HSL: percent inhibition at 10 μM, 3H-Triolein lipid emulsion). Conditions: 10 μM concentration; percent activity relative to an un-inhibited sample; 30 min preincubation, 30 min reaction at 25° C.
T1 sequence (Q05469 1-1076): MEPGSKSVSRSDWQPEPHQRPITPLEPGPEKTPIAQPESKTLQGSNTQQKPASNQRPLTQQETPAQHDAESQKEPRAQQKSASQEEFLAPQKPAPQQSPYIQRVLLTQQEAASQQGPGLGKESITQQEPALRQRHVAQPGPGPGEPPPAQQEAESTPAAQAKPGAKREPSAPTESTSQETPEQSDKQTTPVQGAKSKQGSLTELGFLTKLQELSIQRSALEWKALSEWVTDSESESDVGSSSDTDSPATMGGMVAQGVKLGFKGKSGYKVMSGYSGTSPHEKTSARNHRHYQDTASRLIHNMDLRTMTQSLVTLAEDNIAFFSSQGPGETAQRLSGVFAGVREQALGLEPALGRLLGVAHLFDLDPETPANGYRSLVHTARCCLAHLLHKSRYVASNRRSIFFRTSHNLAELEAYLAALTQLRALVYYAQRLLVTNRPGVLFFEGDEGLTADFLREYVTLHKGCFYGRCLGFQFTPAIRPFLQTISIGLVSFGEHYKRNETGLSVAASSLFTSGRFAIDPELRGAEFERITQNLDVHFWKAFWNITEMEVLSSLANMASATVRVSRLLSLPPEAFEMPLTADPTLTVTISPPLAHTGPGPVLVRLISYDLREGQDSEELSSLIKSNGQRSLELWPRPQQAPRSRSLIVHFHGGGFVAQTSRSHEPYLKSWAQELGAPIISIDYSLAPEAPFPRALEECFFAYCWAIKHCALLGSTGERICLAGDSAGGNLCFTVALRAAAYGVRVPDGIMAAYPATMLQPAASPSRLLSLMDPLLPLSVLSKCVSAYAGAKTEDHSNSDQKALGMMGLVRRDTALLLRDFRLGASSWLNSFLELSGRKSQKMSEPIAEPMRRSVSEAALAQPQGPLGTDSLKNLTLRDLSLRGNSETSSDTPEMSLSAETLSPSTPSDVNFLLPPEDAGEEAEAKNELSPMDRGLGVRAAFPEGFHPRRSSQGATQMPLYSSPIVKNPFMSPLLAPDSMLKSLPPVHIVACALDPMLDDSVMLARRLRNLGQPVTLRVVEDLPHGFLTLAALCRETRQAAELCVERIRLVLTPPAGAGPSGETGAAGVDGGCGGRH
Assay type: biochemical

Row | TEST 3180.2 HSL Activity (%) | SMILES
1 | 82 | COC1OC2COB(c3ccccc3)OC2C(O)C1O (stereo not shown) [Example 78, 6-Methoxy-2-phenyl-hexahydro-pyrano[3,2-a][1,3,2]dioxaborinine-7,8-diol]
2 | 85 | CC1(C)OB(c2ccsc2[Si](C)(C)C)OC1(C)C [Example 81, 3′-(4,4,5,5-TETRAMETHYL-1,3,2-DIOXABOROLAN-2-YL)-2-trimethylsilylthiophen]
3 | 96 | CC1(C)OB(c2csc([N+](=O)[O-])c2)OC1(C)C [Example 82, 4′-(4,4,5,5-TETRAMETHYL-1,3,2-DIOXABOROLAN-2-YL)2-nitrothiophene]

Same assay, conditions: 10 μM concentration; percent activity relative to an un-inhibited sample; 30 min preincubation, 30 min reaction at 25° C.; read-out: TEST 3180.2 HSL Activity (%)

Row | activity at 10 µM [%] | SMILES
4 | 76 | OB(O)c1cc(Cl)cc(Cl)c1Cl [Example 64, 2,3,5-Trichlorophenylboronic acid]
5 | 55 | OB(O)c1cc(Cl)ccc1Cl [Example 65, 2,5-Dichlorophenylboronic acid]
6 | 55 | OB(O)c1cccc(F)c1F [Example 66, 2,3-Difluorophenylboronic acid]
7 | 34 | OB(O)c1cc(F)ccc1F [Example 67, 2,5-Difluorophenylboronic acid]
8 | 86 | CC(=O)Nc1ccc(B2OC(C)(C)C(C)(C)O2)cc1 [Example 68, 4′-(4,4,5,5-TETRAMETHYL-1,3,2-DIOXABOROLAN-2-YL)ACETANILIDE]
9 | 45 | OB(O)c1ccc(F)c(F)c1 [Example 69, 3,4-Difluorophenylboronic acid]
10 | 66 | OB(O)c1cccc(Cl)c1Cl [Example 70, 2,3-Dichlorophenylboronic acid]
11 | 61 | OB(O)c1ccc(Br)c(F)c1F [Example 71, 2,3-Difluoro-4-bromophenylboronic acid]
12 | 62 | COc1ccc(F)cc1B(O)O [Example 73, 2-Methoxy5-fluorophenylboronic acid]
13 | 100 | CCCCCC1COB(c2ccc(C(=O)O)c(F)c2)OC1 [Example 79, 2-Fluoro-4-(5-pentyl-[1,3,2]dioxaborinan-2-yl)-benzoic acid]
14 | 80 | Ic1cccc(OCC2COB(c3ccccc3)O2)c1 (stereo not shown) [Example 80, 4-(3-Iodo-phenoxymethyl)-2-phenyl-[1,3,2]dioxaborolane]
15 | 76 | OB(O)c1csc2ccccc12 [Example 83, 1-BENZOTHIOPHEN-3-YLBORONIC ACID]
16 | 92 | O=Cc1sccc1B(O)O [Example 84, 2-FORMYL-3-THIOPHENEBORONIC ACID]
17 | 89 | c1ccc2c(c1)OB(c1ccsc1)O2 [Example 85, 2-THIEN-3-YL-1,3,2-BENZODIOXABOROLE]
18 | 49 | Cc1csc(B(O)O)c1 [Example 88, 4-METHYLTHIOPHENE-2-BORONIC ACID]
19 | 87 | Cc1ccc(B(O)O)o1 [Example 89, 5-METHYLFURAN-2-BORONIC ACID]
20 | 48 | Cc1ccc(B(O)O)s1 [Example 90, 5-Methylthiophene-2-boronic acid]
21 | 57 | OB(O)c1cc2ccccc2o1 [Example 91, BENZO[B]FURAN-2-BORONIC ACID]
22 | 53 | OB(O)c1cc2ccccc2s1 [Example 92, Benzo[B]thiophene-2-boronic acid]
23 | 89 | OB(O)c1ccco1 [Example 93, Furan-2-boronic acid]
24 | 17 | OB(O)c1ccc(Cl)s1 [Example 94, 5-Chlorothiophene-2-boronic acid]
25 | 49 | N#Cc1ccc(B(O)O)s1 [Example 95, 5-Cyanothiophene-2-boronic acid]
26 | 68 | CC(=O)c1ccc(B(O)O)s1 [Example 96, 5-Acetylthiophene-2-boronic acid]
27 | 66 | OB(O)c1cccs1 [Example 97, Thiophene-2-boronic acid]
28 | 84 | OB(O)c1sccc1Br [Example 98, 3-Bromothiophene-2-boronic acid]

Same assay, conditions: read-out: TEST 3180.2 HSL Activity (%)

Row | SMILES | activity at 10 µM [%]
29 | Cc1cc(B2OCCCO2)sc1C=O [Example 87, 2-(2-FORMYL-3-METHYLTHIEN-5-YL)-1,3,2-DIOXABORINANE] | 75

Each molecule was assayed against T2, hormone sensitive lipase (Homo sapiens, UniProt Q05469) (assay: TEST 3190.1 HSL-FL: percent inhibition of hormone sensitive lipase at 10 μM, fluorochrome-labeled triacylglyceride emulsion). Conditions: 10 μM sample concentration; percent activity relative to a non-inhibited sample; 30 min preincubation 25° C., 120 min at 37° C.
T2 sequence (Q05469 1-1076): T1 sequence (Q05469 1-1076)
Assay type: biochemical
Protocol: 3190.1: Assay for determination of percent inhibition of hormone sensitive lipase by compound at 10 μM sample concentration.
A lipid emulsion with fluorochrome-labeled triacylglyceride and phospholipid is used as substrate with a standard concentration of highly purified HSL (12 μg/mL initial concentration corresponding to 600 ng/mL final concentration). BSA is added as product receptor. The transfer of the fluorochrome from the lipid phase to the water (BSA) phase changes the fluorescent properties of the fluorochrome. The changes can be monitored on a fluorimeter with an excitation wavelength of 450 nm and an emission wavelength of 545 nm.
Compound and HSL (2 μL compound, 10 μL enzyme and 70 μL PED-BSA buffer) is pre-incubated for 30 min at 25° C. before addition of substrate (100 μL). Amount of formed product is measured after 120 min incubation at 37° C.
Results are given as percent activity relative to a non-inhibited sample (no compound).

Row | activity at 10 µM [%] | SMILES
30 | 17 | CC1(C)OB(c2ccc(Cl)s2)OC1(C)C [Example 1, 2-(5-Chlorothiophen-2-yl)-4,4,5,5-tetramethyl-[1,3,2]dioxaborolane]
31 | 17 | CC1(C)COB(c2ccc(Cl)s2)OC1 [Example 2, 2-(5-Chlorothiophen-2-yl)-5,5-dimethyl-[1,3,2]dioxaborinane]
32 | 19 | Clc1ccc(B2OCCNCCO2)s1 [Example 3, 2-(5-Chlorothiophen-2-yl)-[1,3,6,2]dioxazaborocane]
33 | 32 | Fc1cc(F)cc(B2OCCNCCO2)c1 [Example 4, 2-(3,5-Difluorophenyl)-[1,3,6,2]dioxazaborocane]
34 | 34 | Brc1cccc(B2OCCNCCO2)c1 [Example 5, 2-(3-Bromophenyl)-[1,3,6,2]dioxazaborocane]
35 | 36 | Clc1cccc(B2OCCNCCO2)c1 [Example 6, 2-(3-Chlorophenyl)-[1,3,6,2]dioxazaborocane]
36 | 80 | Fc1cccc(B2OCCNCCO2)c1 [Example 7, 2-(3-Fluorophenyl)-[1,3,6,2]dioxazaborocane]
37 | 29 | FC(F)(F)c1cccc(B2OCCNCCO2)c1 [Example 8, 2-(3-Trifluoromethylphenyl)-[1,3,6,2]dioxazaborocane]
38 | 32 | Fc1cc(B2OCCNCCO2)cc(F)c1F [Example 9, 2-(3,4,5-Trifluorophenyl)-[1,3,6,2]dioxazaborocane]
39 | 39 | CC1(C)COB(c2cccc(Cl)c2)OC1 [Example 10, 2-(3-Chlorophenyl)-5,5-dimethyl-[1,3,2]dioxaborinane]
40 | 31 | CC1(C)COB(c2cccc(C(F)(F)F)c2)OC1 [Example 11, 5,5-Dimethyl-2-(3-trifluoromethylphenyl)-[1,3,2]dioxaborinane]
41 | 39 | COc1ccc(Cl)cc1B1OCCNCCO1 [Example 12, 2-(5-Chloro-2-methoxyphenyl)-[1,3,6,2]dioxazaborocane]
42 | 26 | FC(F)(F)Oc1cccc(B2OCCNCCO2)c1 [Example 13, 2-(3-Trifluoromethoxyphenyl)-[1,3,6,2]dioxazaborocane]
43 | 40 | Clc1cc(Cl)cc(B2OCCNCCO2)c1 [Example 14, 2-(3,5-Dichlorophenyl)-[1,3,6,2]dioxazaborocane]
44 | 39 | Fc1ccc(B2OCCNCCO2)cc1Cl [Example 15, 2-(3-Chloro-4-fluorophenyl)-[1,3,6,2]dioxazaborocane]
45 | 61 | Cc1csc(B2OCCNCCO2)c1 [Example 16, 2-(4-Methylthiophen-2-yl)-[1,3,6,2]dioxazaborocane]
46 | 11 | CC1(C)COB(c2cccc(Br)c2)OC1 [Example 17, 2-(3-Bromophenyl)-5,5-dimethyl-[1,3,2]dioxaborinane]
47 | 43 | COc1ccc(Cl)cc1B1OCC(C)(C)CO1 [Example 18, 2-(5-Chloro-2-methoxyphenyl)-5,5-dimethyl-[1,3,2]dioxaborinane]
48 | 49 | CC1(C)COB(c2cc(F)c(F)c(F)c2)OC1 [Example 19, 5,5-Dimethyl-2-(3,4,5-trifluorophenyl)-[1,3,2]dioxaborinane]
49 | 27 | CC1(C)COB(c2cccc(OC(F)(F)F)c2)OC1 [Example 20, 5,5-Dimethyl-2-(3-trifluoromethoxyphenyl)-[1,3,2]dioxaborinane]

From patent US7037905B2, “Pharmaceutical use of boronic acids and esters thereof” (Novo Nordisk A/S, priority 2002, dated 2006)
